Among the data in PubChem BioAssay (NCI) are GI50 and TGI values, retold here.

“And” between values parts separate entries of the source, which are not always exact repeats. Equal values may be shown once.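 Grown in 96-well plates, cells were treated for 48 hours with each compound at five concentrations. Insufficient inhibition: endpoint recorded as highest concentration tested. Abbreviation: GI50, concentration required for 50% inhibition of growth. TGI: concentration producing complete growth inhibition.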

Test in all cases: DTP human tumour cell line panel, 48 h
Assay [1] relates to UO-31 renal.
Assay [2] has as its system HOP-62 NSCLC.
The subject of assay [3] is A498 renal.
The test system of assay [4] is MDA-MB-435.
In assay [5] the test system is CAKI-1 renal.
Assay [6] has as its system LOX IMVI melanoma.
Assay [7] relates to PC-3 prostate.
The test system of assay [8] is HCC-2998 colon.
Assay [9] has as its system OVCAR-3 ovarian.
Assay [10] has as its system HL-60(TB) leukemia.

A word on the GI50: it is the concentration that inhibits growth by half. The term TGI denotes the concentration giving total growth inhibition. Consider `COc1cc(-c2nn(-c3cccc(NC(=O)c4ccc(Cl)c(C(F)(F)F)c4)c3)cc2-c2ccncc2)ccc1Cl`, for which the GI50 was 0.551 µM in [1]; 6.5 µM in assay [2]; 1.02 µM in assay [3]; 0.658 µM in assay [4]; 2.34 µM in [5]; 1.92 µM in [6]. For the same molecule, the GI50 in assay [7] was 0.798 µM; in assay [8], 9.89 µM; in assay [9] it was 1.43 µM; in assay [10], 2.56 µM. Further, the TGI in assay [1] was over 32.5 µM; in assay [2], over 32.5 µM; in [3] it was 7.01 µM; in assay [4], 1.79 µM; in assay [5], over 32.5 µM; in [6], over 32.5 µM. Besides, the TGI in assay [7] was over 16.3 µM; in assay [8], over 32.5 µM; in assay [9], 15.2 µM; in assay [10], over 32.5 µM.
`COc1nnc2ccc(N3CCC(c4ccc(OCCN5CCN(C)C(=O)[C@H]5C)cc4)CC3)nn12`: the GI50 in [1] is 0.0396 µM; in assay [2] it was 0.0875 µM; in [3] it was 0.0813 µM; in assay [4] it was 0.0569 µM; in assay [5] it was 0.0237 µM; in assay [6], 0.038 µM. Also, the GI50 was 0.315 µM in [7], 0.138 µM in assay [8], 0.0975 µM in assay [9] and 0.0309 µM in [10]. For the same molecule, the TGI in [1] was over 100 µM; in assay [2] it was over 100 µM; in assay [3], 3.06 µM; in assay [4] it was over 100 µM; in [5], over 100 µM; in assay [6], 4.56 µM. In addition, the TGI in [7] is over 100 µM; in assay [8], 16.1 µM; in assay [9], 53.1 µM; in assay [10] it was over 100 µM.
As to `CC1=C(C(=O)Nc2ccc(Cl)c(C(=O)OC(C)C)c2)SCCO1`, the TGI in assay [1] is 73 µM; in [2] it was over 100 µM; in [3], 90.9 µM; in [4], over 100 µM; in assay [5] it was over 100 µM; in assay [6] it was 84.6 µM. Further, the TGI is over 100 µM in [7], 75 µM in assay [8], over 100 µM in assay [9] and 51 µM in [10].
For `CCC(=O)c1c(C(F)(F)F)n([O-])c2cc(F)c(F)cc2[n+]1=O`, the GI50 in assay [1] was 0.971 µM; in [2], 1.44 µM; in [3], 1.74 µM; in [4] it was 0.159 µM; in [5], 0.329 µM; in assay [6] it was 0.0284 µM. The GI50 is 1.54 µM in [7], 1.45 µM in [8], 0.296 µM in assay [9] and 0.638 µM in [10]. Further, the TGI in assay [1] worked out at 3.05 µM; in assay [2], 2.81 µM; in [3], 4.92 µM; in assay [4] it was 0.605 µM; in assay [5], 1.03 µM; in assay [6], 0.221 µM. Besides, the TGI turned out to be 3.06 µM in [7], 2.9 µM in assay [8], 0.836 µM in assay [9] and 6.55 µM in assay [10].
Take `Cc1cc([N+](=O)[O-])c2ccccc2[n+]1[O-]`: the GI50 in [1] was 0.215 µM and 0.22 µM; in assay [2], 0.188 µM and 0.25 µM; in assay [3], 0.185 µM and 0.144 µM; in assay [4], 0.336 µM and 0.286 µM; in assay [5], 0.541 µM and 0.627 µM; in [6], 1.16 µM and 0.385 µM. The 50% growth inhibitory concentration (GI50) in assay [7] is 0.165 µM and 0.149 µM; in assay [8] it was 0.128 µM and 0.221 µM; in assay [9] it was 0.392 µM and 0.319 µM; in assay [10], 2.11 µM and 1.65 µM. The TGI in [1] was 0.681 µM and 0.903 µM; in assay [2], 0.835 µM and 1.13 µM; in assay [3] it was 0.464 µM and 0.416 µM; in [4], 1.58 µM and 1.2 µM; in assay [5], 3.92 µM and 2.35 µM; in assay [6] it was 3.48 µM and 1.87 µM. Further, the TGI in [7] is 1.01 µM and 0.663 µM; in assay [8], 0.375 µM and 0.664 µM; in [9] it was 1.71 µM and 1.25 µM; in assay [10], 6.48 µM and 5.51 µM.
In the case of `NS(=O)(=O)OCCCCCCCOS(N)(=O)=O`, the TGI amounted to 680 µM in assay [1]; 676 µM in assay [2]; 770 µM in [3]; 921 µM in assay [4]; 594 µM in assay [5]; 724 µM in [6]. Moreover, the TGI in assay [7] turned out to be 1240 µM; in assay [8], 718 µM; in assay [9], 835 µM; in assay [10] it was 469 µM.
Regarding `CCn1c(-c2nonc2N)nc2cncc(C(=O)N3CC[C@H](N)C3)c21`, the GI50 in assay [1] is 0.269 µM; in [2] it was 7.38 µM; in assay [3] it was 1.2 µM; in [4], over 25 µM; in assay [5], 2.35 µM; in assay [6], over 25 µM. The GI50 in assay [7], in [8], in assay [9] and in assay [10] was over 25 µM throughout. The TGI in assay [1] is over 8.77 µM; in assay [2], over 25 µM; in assay [3], over 25 µM; in assay [4] it was over 25 µM; in [5], over 25 µM; in assay [6], over 25 µM. Also, the TGI in [7], in assay [8], in [9] and in assay [10] was over 25 µM in each case.
For the molecule `CCN(CC)Cc1cc2[nH]c3c4ccc(Cl)cc4ncc3c2cc1OC`, the GI50 in [1] was 4.25 µM and 1.59 µM; in [2], 5.41 µM and 2.01 µM; in [3], 15.9 µM and 10 µM; in [4], 1.78 µM and 1.75 µM; in assay [5], 3.36 µM and 2.3 µM; in assay [6] it was 1.73 µM and 1.7 µM. Further, the GI50 is 3.18 µM and 1.99 µM in assay [7]; 2.22 µM and 3.33 µM in assay [8]; 1.89 µM and 2.02 µM in assay [9]; 5.13 µM and 2.24 µM in [10]. The TGI in assay [1] is 8.93 µM and 3.83 µM; in [2], 11.7 µM and 9.34 µM; in assay [3] it was 29.4 µM and 21.7 µM; in assay [4], 3.55 µM and 3.4 µM; in [5] it was 9.14 µM and 9.8 µM; in assay [6] it was 3.43 µM and 3.23 µM. Also, the TGI is 16 µM and 6.8 µM in assay [7]; 6.79 µM and 13.6 µM in assay [8]; 3.78 µM and 4.29 µM in assay [9].
